Test results from ChEMBL document CHEMBL4507315 (2021).

Tests used:
[1] = system: Tyrosine-protein kinase ABL1 (Homo sapiens), P00519 [F317L]; conditions: Compound concentration 100.0 nM
[2] = system: Tyrosine-protein kinase ABL1 (Homo sapiens), P00519 [H396P]; conditions: Compound concentration 100.0 nM
[3] = system: Tyrosine-protein kinase ABL1 (Homo sapiens), P00519 [M351T]; conditions: Compound concentration 100.0 nM
[4] = biological target: Activin receptor type-2A (Homo sapiens) (UniProt P27037); conditions: Compound concentration 100.0 nM
[5] = biological target: BMP-2-inducible protein kinase (Homo sapiens) (UniProt Q9NSY1); conditions: Compound concentration 100.0 nM
[6] = biological target: Calcium/calmodulin-dependent protein kinase type II subunit alpha (Homo sapiens) (UniProt Q9UQM7); conditions: Compound concentration 100.0 nM
[7] = biological target: Megakaryocyte-associated tyrosine-protein kinase (Homo sapiens) (UniProt P42679); conditions: Compound concentration 100.0 nM
Sequence of Megakaryocyte-associated tyrosine-protein kinase (Homo sapiens) (P42679 whole entry): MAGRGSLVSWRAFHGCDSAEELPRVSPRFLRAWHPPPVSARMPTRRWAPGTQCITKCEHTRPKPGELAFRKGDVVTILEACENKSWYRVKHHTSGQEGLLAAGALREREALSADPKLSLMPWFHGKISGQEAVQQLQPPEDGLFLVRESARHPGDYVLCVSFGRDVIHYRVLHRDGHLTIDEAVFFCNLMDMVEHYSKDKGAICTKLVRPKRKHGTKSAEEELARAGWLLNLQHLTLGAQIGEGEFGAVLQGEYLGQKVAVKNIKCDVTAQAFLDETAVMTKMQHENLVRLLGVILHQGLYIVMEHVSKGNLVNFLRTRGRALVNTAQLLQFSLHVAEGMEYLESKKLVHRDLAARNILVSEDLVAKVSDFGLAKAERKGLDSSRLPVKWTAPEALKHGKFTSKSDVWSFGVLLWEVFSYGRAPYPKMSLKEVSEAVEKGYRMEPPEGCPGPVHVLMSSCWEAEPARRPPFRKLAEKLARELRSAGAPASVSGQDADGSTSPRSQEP

[8] = biological target: Ephrin type-B receptor 6 (Homo sapiens) (UniProt O15197); conditions: Compound concentration 100.0 nM
[9] = biological target: Receptor tyrosine-protein kinase erbB-2 (Homo sapiens) (UniProt P04626); conditions: Compound concentration 100.0 nM
[10] = biological target: Mitogen-activated protein kinase 6 (Homo sapiens) (UniProt Q16659); conditions: Compound concentration 100.0 nM
[11] = system: Fibroblast growth factor receptor 3 (Homo sapiens), P22607 [G697C]; conditions: Compound concentration 100.0 nM
[12] = system: Receptor-type tyrosine-protein kinase FLT3 (Homo sapiens), P36888 [UNDEFINED MUTATION]; conditions: Compound concentration 100.0 nM
Sequence of Receptor-type tyrosine-protein kinase FLT3 (Homo sapiens), P36888 [UNDEFINED MUTATION] (P36888 whole entry, looked up, change not shown): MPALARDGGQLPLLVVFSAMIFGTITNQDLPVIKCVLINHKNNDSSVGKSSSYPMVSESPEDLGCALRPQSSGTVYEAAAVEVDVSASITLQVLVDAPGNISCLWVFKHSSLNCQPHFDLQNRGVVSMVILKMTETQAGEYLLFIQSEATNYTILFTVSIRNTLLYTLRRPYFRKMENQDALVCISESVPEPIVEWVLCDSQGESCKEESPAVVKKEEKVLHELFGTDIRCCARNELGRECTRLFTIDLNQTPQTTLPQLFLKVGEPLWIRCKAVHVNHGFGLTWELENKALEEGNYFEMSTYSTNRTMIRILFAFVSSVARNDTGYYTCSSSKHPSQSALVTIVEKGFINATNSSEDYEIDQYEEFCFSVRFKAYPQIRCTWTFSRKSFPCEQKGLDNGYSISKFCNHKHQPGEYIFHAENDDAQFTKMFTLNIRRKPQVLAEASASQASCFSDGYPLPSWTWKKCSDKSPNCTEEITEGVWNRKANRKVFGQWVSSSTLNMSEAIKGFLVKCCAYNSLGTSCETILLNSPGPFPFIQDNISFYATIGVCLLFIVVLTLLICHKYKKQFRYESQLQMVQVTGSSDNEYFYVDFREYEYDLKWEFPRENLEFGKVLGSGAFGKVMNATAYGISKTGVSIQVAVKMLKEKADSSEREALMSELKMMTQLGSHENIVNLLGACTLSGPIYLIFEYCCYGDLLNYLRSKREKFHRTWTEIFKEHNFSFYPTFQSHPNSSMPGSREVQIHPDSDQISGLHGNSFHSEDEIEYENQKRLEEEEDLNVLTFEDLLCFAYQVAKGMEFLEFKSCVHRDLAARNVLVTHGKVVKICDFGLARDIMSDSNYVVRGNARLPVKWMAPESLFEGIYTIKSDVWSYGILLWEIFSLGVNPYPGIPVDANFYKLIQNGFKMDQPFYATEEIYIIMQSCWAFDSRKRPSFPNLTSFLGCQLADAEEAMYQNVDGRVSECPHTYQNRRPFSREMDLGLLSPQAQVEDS

[13] = biological target: Inhibitor of nuclear factor kappa-B kinase subunit alpha (Homo sapiens) (UniProt O15111); conditions: Compound concentration 100.0 nM
[14] = biological target: Inhibitor of nuclear factor kappa-B kinase subunit beta (Homo sapiens) (UniProt O14920); conditions: Compound concentration 100.0 nM
[15] = system: Mast/stem cell growth factor receptor Kit (Homo sapiens), P10721 [V559D,V654A]; conditions: Compound concentration 100.0 nM
[16] = biological target: LIM domain kinase 2 (Homo sapiens) (UniProt P53671); conditions: Compound concentration 100.0 nM
[17] = biological target: Serine/threonine-protein kinase MARK2 (Homo sapiens) (UniProt Q7KZI7); conditions: Compound concentration 100.0 nM
[18] = biological target: Hepatocyte growth factor receptor (Homo sapiens) (UniProt P08581); conditions: Compound concentration 100.0 nM
Sequence of Hepatocyte growth factor receptor (Homo sapiens) (P08581 whole entry): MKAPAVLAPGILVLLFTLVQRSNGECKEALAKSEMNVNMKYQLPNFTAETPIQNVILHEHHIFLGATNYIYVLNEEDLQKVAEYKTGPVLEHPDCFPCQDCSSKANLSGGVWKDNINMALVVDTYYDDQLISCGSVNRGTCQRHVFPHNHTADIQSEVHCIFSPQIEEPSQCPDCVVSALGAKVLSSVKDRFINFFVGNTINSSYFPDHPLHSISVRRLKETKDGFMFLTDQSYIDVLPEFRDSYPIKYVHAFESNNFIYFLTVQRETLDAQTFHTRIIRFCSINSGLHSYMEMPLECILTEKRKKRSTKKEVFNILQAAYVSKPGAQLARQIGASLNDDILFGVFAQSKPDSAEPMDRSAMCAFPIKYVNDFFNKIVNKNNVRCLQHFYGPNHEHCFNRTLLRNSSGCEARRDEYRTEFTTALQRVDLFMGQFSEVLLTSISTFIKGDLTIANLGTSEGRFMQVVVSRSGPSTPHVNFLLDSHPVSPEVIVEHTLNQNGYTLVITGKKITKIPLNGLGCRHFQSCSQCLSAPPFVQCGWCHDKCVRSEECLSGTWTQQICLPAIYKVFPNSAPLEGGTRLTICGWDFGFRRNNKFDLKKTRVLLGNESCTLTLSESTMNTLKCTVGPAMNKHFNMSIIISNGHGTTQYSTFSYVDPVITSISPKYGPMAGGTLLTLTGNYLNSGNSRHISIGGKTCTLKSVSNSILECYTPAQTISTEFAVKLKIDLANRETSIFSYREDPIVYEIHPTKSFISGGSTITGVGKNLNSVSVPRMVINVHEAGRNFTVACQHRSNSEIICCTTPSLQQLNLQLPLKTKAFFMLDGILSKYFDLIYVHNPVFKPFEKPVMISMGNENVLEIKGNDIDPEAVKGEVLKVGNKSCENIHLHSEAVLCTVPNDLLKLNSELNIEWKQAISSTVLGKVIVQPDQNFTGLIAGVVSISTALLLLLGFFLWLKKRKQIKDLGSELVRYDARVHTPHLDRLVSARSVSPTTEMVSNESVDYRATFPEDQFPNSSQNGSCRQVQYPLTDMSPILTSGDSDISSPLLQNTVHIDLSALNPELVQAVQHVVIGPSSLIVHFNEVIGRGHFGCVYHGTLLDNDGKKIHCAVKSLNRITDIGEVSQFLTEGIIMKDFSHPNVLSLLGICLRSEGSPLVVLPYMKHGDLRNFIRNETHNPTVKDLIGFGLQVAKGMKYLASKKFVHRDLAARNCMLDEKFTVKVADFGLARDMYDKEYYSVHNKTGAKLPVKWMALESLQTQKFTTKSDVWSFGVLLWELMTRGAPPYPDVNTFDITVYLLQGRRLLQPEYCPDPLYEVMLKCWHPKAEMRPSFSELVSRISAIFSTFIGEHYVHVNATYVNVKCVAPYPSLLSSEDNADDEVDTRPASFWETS

[19] = biological target: Misshapen-like kinase 1 (Homo sapiens) (UniProt Q8N4C8); conditions: Compound concentration 100.0 nM
[20] = biological target: Myosin light chain kinase family member 4 (Homo sapiens) (UniProt Q86YV6); conditions: Compound concentration 100.0 nM
Sequence of Myosin light chain kinase family member 4 (Homo sapiens) (Q86YV6 whole entry): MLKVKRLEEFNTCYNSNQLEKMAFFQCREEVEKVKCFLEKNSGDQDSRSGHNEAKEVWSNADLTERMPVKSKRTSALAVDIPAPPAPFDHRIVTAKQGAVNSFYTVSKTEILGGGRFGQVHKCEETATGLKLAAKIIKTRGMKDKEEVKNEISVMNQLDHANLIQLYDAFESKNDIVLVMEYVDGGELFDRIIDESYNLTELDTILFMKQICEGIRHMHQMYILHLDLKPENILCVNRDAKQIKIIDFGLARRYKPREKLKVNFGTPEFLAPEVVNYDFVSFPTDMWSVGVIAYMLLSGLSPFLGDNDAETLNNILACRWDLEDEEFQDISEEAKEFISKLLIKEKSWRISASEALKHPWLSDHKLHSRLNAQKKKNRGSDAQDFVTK

[21] = biological target: Serine/threonine-protein kinase Nek5 (Homo sapiens) (UniProt Q6P3R8); conditions: Compound concentration 100.0 nM
[22] = biological target: Mitogen-activated protein kinase kinase kinase 14 (Homo sapiens) (UniProt Q99558); conditions: Compound concentration 100.0 nM
[23] = biological target: Mitogen-activated protein kinase 13 (Homo sapiens) (UniProt O15264); conditions: Compound concentration 100.0 nM
[24] = biological target: Cyclin-dependent kinase 16 (Homo sapiens) (UniProt Q00536); conditions: Compound concentration 100.0 nM
[25] = biological target: Platelet-derived growth factor receptor beta (Homo sapiens) (UniProt P09619); conditions: Compound concentration 100.0 nM
[26] = system: Phosphatidylinositol 4,5-bisphosphate 3-kinase catalytic subunit alpha isoform (Homo sapiens), P42336 [C420R]; conditions: Compound concentration 100.0 nM
Sequence of Phosphatidylinositol 4,5-bisphosphate 3-kinase catalytic subunit alpha isoform (Homo sapiens), P42336 [C420R] (P42336 whole entry C420R, canonical isoform): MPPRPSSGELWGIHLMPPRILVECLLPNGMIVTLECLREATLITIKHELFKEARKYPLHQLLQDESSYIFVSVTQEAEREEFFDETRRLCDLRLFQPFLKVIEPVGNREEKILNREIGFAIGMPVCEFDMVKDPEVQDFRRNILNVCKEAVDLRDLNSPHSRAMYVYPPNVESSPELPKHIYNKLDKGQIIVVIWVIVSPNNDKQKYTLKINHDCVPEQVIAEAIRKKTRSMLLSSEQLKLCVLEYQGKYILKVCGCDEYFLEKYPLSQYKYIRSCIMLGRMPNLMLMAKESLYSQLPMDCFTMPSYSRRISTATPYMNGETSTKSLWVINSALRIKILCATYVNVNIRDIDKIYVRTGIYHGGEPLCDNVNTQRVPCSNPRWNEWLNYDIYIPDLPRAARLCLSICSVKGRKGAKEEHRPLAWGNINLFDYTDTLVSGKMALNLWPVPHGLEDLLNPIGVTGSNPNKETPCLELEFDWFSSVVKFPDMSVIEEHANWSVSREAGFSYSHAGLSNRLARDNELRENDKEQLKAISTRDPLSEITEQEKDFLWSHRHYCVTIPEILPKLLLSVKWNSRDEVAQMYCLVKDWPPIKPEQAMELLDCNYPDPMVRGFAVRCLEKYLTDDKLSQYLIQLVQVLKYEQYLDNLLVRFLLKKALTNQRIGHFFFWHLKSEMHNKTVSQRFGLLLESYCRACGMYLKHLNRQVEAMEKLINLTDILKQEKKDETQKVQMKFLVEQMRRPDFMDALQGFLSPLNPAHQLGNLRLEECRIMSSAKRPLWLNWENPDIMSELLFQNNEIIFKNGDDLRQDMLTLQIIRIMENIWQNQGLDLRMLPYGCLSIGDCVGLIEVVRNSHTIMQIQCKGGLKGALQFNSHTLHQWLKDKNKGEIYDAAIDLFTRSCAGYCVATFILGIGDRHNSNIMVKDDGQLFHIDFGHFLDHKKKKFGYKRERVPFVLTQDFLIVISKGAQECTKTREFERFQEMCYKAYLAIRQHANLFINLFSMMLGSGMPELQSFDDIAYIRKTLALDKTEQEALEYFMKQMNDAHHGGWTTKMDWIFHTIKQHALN

[27] = biological target: Phosphatidylinositol 4-kinase beta (Homo sapiens) (UniProt Q9UBF8); conditions: Compound concentration 100.0 nM
[28] = biological target: Serine/threonine-protein kinase N1 (Homo sapiens) (UniProt Q16512); conditions: Compound concentration 100.0 nM
[29] = biological target: Serine/threonine-protein kinase PLK1 (Homo sapiens) (UniProt P53350); conditions: Compound concentration 100.0 nM
[30] = biological target: Protein-tyrosine kinase 2-beta (Homo sapiens) (UniProt Q14289); conditions: Compound concentration 100.0 nM
[31] = biological target: Proto-oncogene tyrosine-protein kinase ROS (Homo sapiens) (UniProt P08922); conditions: Compound concentration 100.0 nM
[32] = biological target: Tyrosine-protein kinase Srms (Homo sapiens) (UniProt Q9H3Y6); conditions: Compound concentration 100.0 nM
Sequence of Tyrosine-protein kinase Srms (Homo sapiens) (Q9H3Y6 whole entry): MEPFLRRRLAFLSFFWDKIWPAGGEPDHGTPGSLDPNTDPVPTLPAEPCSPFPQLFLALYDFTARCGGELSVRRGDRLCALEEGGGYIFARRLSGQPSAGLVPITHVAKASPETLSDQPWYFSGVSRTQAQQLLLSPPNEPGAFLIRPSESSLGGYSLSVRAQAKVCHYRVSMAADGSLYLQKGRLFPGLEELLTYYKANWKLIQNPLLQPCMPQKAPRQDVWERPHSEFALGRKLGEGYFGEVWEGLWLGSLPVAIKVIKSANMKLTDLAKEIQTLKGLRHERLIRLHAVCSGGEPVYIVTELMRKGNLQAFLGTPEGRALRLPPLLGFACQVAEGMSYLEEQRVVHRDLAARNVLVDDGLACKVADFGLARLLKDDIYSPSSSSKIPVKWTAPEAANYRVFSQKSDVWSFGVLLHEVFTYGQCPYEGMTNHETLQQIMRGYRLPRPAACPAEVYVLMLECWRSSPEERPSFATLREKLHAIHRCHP

[33] = biological target: Tyrosine-protein kinase SYK (Homo sapiens) (UniProt P43405); conditions: Compound concentration 100.0 nM
[34] = biological target: Serine/threonine-protein kinase TAO3 (Homo sapiens) (UniProt Q9H2K8); conditions: Compound concentration 100.0 nM
[35] = biological target: TGF-beta receptor type-1 (Homo sapiens) (UniProt P36897); conditions: Compound concentration 100.0 nM
[36] = biological target: Serine/threonine-protein kinase tousled-like 2 (Homo sapiens) (UniProt Q86UE8); conditions: Compound concentration 100.0 nM
[37] = biological target: High affinity nerve growth factor receptor (Homo sapiens) (UniProt P04629); conditions: Compound concentration 100.0 nM
[38] = biological target: Serine/threonine-protein kinase VRK2 (Homo sapiens) (UniProt Q86Y07); conditions: Compound concentration 100.0 nM
[39] = biological target: Serine/threonine-protein kinase WNK1 (Homo sapiens) (UniProt Q9H4A3); conditions: Compound concentration 100.0 nM
[40] = biological target: Serine/threonine-protein kinase WNK4 (Homo sapiens) (UniProt Q96J92); conditions: Compound concentration 100.0 nM
[41] = biological target: 5-hydroxytryptamine receptor 1A (Homo sapiens) (UniProt P08908); conditions: Compound concentration 10.0 uM
[42] = biological target: 5-hydroxytryptamine receptor 1E (Homo sapiens) (UniProt P28566); conditions: Compound concentration 10.0 uM
[43] = biological target: Beta-3 adrenergic receptor (Homo sapiens) (UniProt P13945); conditions: Compound concentration 10.0 uM
[44] = biological target: GABA-A receptor; anion channel (Rattus norvegicus) (UniProt O09028+P15431+P18506+P18508+P19969+P20236+P23574+P23576+P28471+P28473+P30191+P62813+P63079+P63138+Q91ZM7+Q9ES14); conditions: Compound concentration 10.0 uM

Nc1c(C(=O)NCc2ccc(C(=O)NCCCC3CCCCC3)cc2)cnn1-c1ccccc1 [SR-318]
inactive: residual activity [1] 100% | residual activity [2] 100% | residual activity [3] 86% | residual activity [4] 100% | residual activity [5] 100% | residual activity [6] 100% | residual activity [7] 100% | residual activity [8] 100% | residual activity [9] 100% | residual activity [10] 92% | residual activity [11] 87% | residual activity [12] 90% | residual activity [13] 100% | residual activity [14] 100% | residual activity [15] 100% | residual activity [16] 100% | residual activity [17] 65% | residual activity [18] 95% | residual activity [19] 100% | residual activity [20] 100% | residual activity [21] 99% | residual activity [22] 100% | residual activity [23] 100% | residual activity [24] 97% | residual activity [25] 100% | residual activity [26] 100% | residual activity [27] 100% | residual activity [28] 96% | residual activity [29] 100% | residual activity [30] 99% | residual activity [31] 83% | residual activity [32] 100% | residual activity [33] 74% | residual activity [34] 96% | residual activity [35] 100% | residual activity [36] 100% | residual activity [37] 100% | residual activity [38] 92% | residual activity [39] 100% | residual activity [40] 80% | inhibition [41] -1.43% | inhibition [42] 1% | inhibition [43] 21.8% | inhibition [44] 13.3%

O=C(NCCCC1CCCCC1)c1ccc(CNC(=O)c2cnn(-c3ccccc3)c2C(F)(F)F)cc1 [SR-321]
inactive: residual activity [1] 82% | residual activity [2] 99% | residual activity [3] 100% | residual activity [4] 83% | residual activity [5] 100% | residual activity [6] 100% | residual activity [7] 100% | residual activity [8] 100% | residual activity [9] 100% | residual activity [10] 100% | residual activity [11] 100% | residual activity [12] 100% | residual activity [13] 100% | residual activity [14] 100% | residual activity [15] 100% | residual activity [16] 100% | residual activity [17] 100% | residual activity [18] 100% | residual activity [19] 97% | residual activity [20] 100% | residual activity [21] 100% | residual activity [22] 90% | residual activity [23] 100% | residual activity [24] 100% | residual activity [25] 100% | residual activity [26] 85% | residual activity [27] 77% | residual activity [28] 100% | residual activity [29] 93% | residual activity [30] 93% | residual activity [31] 100% | residual activity [32] 93% | residual activity [33] 100% | residual activity [34] 99% | residual activity [35] 89% | residual activity [36] 100% | residual activity [37] 100% | residual activity [38] 100% | residual activity [39] 100% | residual activity [40] 100% | inhibition [41] 20.1% | inhibition [42] -6.92% | inhibition [43] 21.7% | inhibition [44] 14%
